In patent US7012098B2, “Inhibitors of inducible nitric oxide synthase for chemoprevention and treatment of cancers” (Pharmacia Corporation, priority 2001, dated 2006):
Where a name gives a salt, the structure may show the parent alone. Read-outs that look alike come from different tables or passages of the source.

How the values were obtained:
NOS = assay: Colonic mucosal NOS activity after dietary treatment; type: in vivo, male F344 rats; settings: 100 ppm in diet; AOM-treated rats, colonic mucosa; Mean ± SEM
Description: In Vivo Assay of Modulation of Colonic Mucosal Activities of NOS and COX isoforms by iNOS and COX-2 Inhibitors
NOS and iNOS activities were determined in colonic samples as prepared and described above. Conversion of L-arginine to L-citrulline was measured by a modification of an earlier described method (Rao et al, Carcinogenesis 21, supra; Ambs et al., Cancer Res. 58:334-41, 1998, which is herein incorporated by reference). The assay was carried out by adding 100 μg sample protein to 150 μl of assay buffer [50 mM HEPES, 1 mM DTT, 1 mM MgCl2, 5 mg/L pepstatin A, 0.1 mM PMSF, and 3 mg/L aprotinin, pH 7.4] containing 70 μM arginine, 250,000 dpm L-[^3H]-arginine, 2 mM NADPH, 5μM tetrahydro biopterin, 5 μM flavin adenine dinucleotide, and 0.5 mM CaCi2 to measure total NOS activity, or 1 mM EGTA (without calcium) to determine Ca+^2-independent iNOS activity. After 30 min at 37° C., the reaction was stopped with 100 μl of 1M trichloroacetic acid. Then the samples were adjusted to pH 4.6 by adding 500 μl of 20 mM HEPES and loaded on to Dowex AG 50W-X8 resin columns. L-[^3H]-citrulline was eluted and separated on TLC. Radioactivity was counted by a BioScan Radiomatic detector. Results are expressed as pmol L-[^3H]-citrulline released/mg protein/min.

COX-2 = molecular target: T1, COX-2 (Rattus norvegicus, UniProt P35355); assay: Colonic mucosal COX-2 activity after dietary treatment; type: in vivo, male F344 rats; settings: 100 ppm in diet; AOM-treated rats, colonic mucosa; Mean ± SEM
T1 sequence (P35355 18-604): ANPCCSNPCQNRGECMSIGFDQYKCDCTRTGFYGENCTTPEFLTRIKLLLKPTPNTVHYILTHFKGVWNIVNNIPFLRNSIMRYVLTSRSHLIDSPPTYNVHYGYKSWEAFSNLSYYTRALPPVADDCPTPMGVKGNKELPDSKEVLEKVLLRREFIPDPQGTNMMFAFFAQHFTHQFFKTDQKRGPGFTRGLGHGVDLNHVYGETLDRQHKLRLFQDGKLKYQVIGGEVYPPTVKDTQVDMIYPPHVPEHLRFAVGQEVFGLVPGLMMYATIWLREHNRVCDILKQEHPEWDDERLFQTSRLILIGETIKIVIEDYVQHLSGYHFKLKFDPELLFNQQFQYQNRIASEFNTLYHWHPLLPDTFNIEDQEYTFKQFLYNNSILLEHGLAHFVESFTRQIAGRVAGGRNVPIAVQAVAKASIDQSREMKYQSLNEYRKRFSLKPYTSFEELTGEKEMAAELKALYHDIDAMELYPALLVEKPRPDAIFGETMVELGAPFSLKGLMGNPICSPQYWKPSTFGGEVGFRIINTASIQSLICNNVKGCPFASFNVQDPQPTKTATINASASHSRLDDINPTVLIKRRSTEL
Description: For determining COX-2 activity, proteins were preincubated with 50 μM of aspirin to block the activity of COX-1. After incubation at 37° C. for 15 min, the reaction was terminated by adding 40 μl of 0.2 M HCl. The COX-mediated metabolites of arachidonic acid were extracted with ethyl acetate (3×0.5 ml). The combined extracts were evaporated to dryness under N2, redissolved in chloroform, and subjected to thin layer chromatography on precoated TLC plastic plates (silica G 60, 20×20 cm, layer thickness 150 μm). […] The metabolites of ^14C-AA corresponding to PGE2, PGF2α, PGD2, 6-Keto PGF1α, and TXB2 were detected by their comigration (Rf-values) with authentic standards. The area of each metabolite was determined in a Bioscan System 200 image scanning counter (Bioscan Inc., Washington, D.C.) equipped with β-detector.
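Wherever Plasma level is given: plasma drug concentrations quantified by liquid chromatography with tandem mass spectrometry following solid phase extraction, reported as mean ± SEM.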
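Wherever Plasma level of compound XI is given: plasma drug concentrations quantified by liquid chromatography with tandem mass spectrometry following solid phase extraction, reported as mean ± SEM.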
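Wherever absorption is given: plasma drug concentrations quantified by liquid chromatography with tandem mass spectrometry following solid phase extraction, reported as mean ± SEM.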

Structure (SMILES): CC(=N)NCCCC[C@H](N)C(=O)Nc1nnn[nH]1 [compound XI, 2S-amino-6-[(1-iminoethyl)amino]-N-(1H-tetrazol-5-yl)hexanamide, hydrate, dihydrochloride]
- NOS Activity, NOS (NOS): 9.8 ± 1.5 pmoles [^3H]-citrulline/mg pro
- absorption (3 dose levels (10, 30, 100 ppm in diet)): Dose-dependant
- Plasma level (10 ppm in diet, Early, One week on diet, Mean ± SEM, hydrate, dihydrochloride): 461 ± 15 ηg/mI
- Plasma level (10 ppm in diet, Late, 9 weeks on diet, Mean ± SEM, hydrate, dihydrochloride): 254 ± 13 ηg/mI
- Plasma level (10 ppm in diet, Mid, 5 weeks on diet, Mean ± SEM, hydrate, dihydrochloride): 341 ± 9.7 ηg/mI
- Plasma level of compound XI (30 ppm compound XI + 500 ppm Celecoxib in diet, Early, One week on diet): 1240 ± 37 + ηg/mI
- Plasma level of compound XI (30 ppm compound XI + 500 ppm Celecoxib in diet, Late, 9 weeks on diet): 788 ± 63 ηg/mI
- Plasma level of compound XI (30 ppm compound XI + 500 ppm Celecoxib in diet, Mid, 5 weeks on diet): 901 ± 5.0 + ηg/mI
- Plasma level (30 ppm in diet, first of 3 time points): 1315 ηg/ml
- Plasma level (30 ppm in diet, second of 3 time points): 821 ηg/ml
- Plasma level (30 ppm in diet, third of 3 time points): 742 ηg/ml
- Plasma level of compound XI (100 ppm compound XI + 500 ppm Celecoxib in diet, Early, One week on diet): 4370 ± 112 + ηg/mI
- Plasma level of compound XI (100 ppm compound XI + 500 ppm Celecoxib in diet, Late, 9 weeks on diet): 2477 ± 204 + ηg/mI
- Plasma level of compound XI (100 ppm compound XI + 500 ppm Celecoxib in diet, Mid, 5 weeks on diet): 3096 ± 344 + ηg/mI
- Plasma level (100 ppm in diet, Early, One week on diet, Mean ± SEM, hydrate, dihydrochloride): 4306 ± 146 ηg/mI
- Plasma level (100 ppm in diet, Late, 9 weeks on diet, Mean ± SEM, hydrate, dihydrochloride): 2639 ± 268 ηg/mI
- Plasma level (100 ppm in diet, Mid, 5 weeks on diet, Mean ± SEM, hydrate, dihydrochloride): 2811 ± 82 ηg/mI
- COX-Activity, COX-2 (COX-2): 1.8 ± 0.3 pmoles [^14C]-AA metabolized/m
